# Data published in PubChem BioAssay (NCI).
#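 Results reflect a 48-hour exposure of cells in 96-well plates to compound at five concentrations. GI50: concentration for 50% inhibition of growth. TGI is the concentration that stops growth completely.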
# Key:
# Assay in all cases: NCI tumour cell line growth inhibition, 48 h
# 786-0 renal = system: 786-0 renal
# A498 renal = system: A498 renal
# A549 NSCLC = system: A549 NSCLC
# ACHN renal = system: ACHN renal
# BT-549 breast = system: BT-549 breast
# CAKI-1 renal = system: CAKI-1 renal
# CCRF-CEM leukemia = system: CCRF-CEM leukemia
# DU-145 prostate = system: DU-145 prostate
# EKVX NSCLC = system: EKVX NSCLC
# HCC-2998 colon = system: HCC-2998 colon
# HCT-116 colon = system: HCT-116 colon
# HCT-15 colon = system: HCT-15 colon
# HL-60(TB) leukemia = system: HL-60(TB) leukemia
# HOP-62 NSCLC = system: HOP-62 NSCLC
# HS 578T breast = system: HS 578T breast
# HT29 colon = system: HT29 colon
# IGROV1 ovarian = system: IGROV1 ovarian
# KM12 colon = system: KM12 colon
# LOX IMVI melanoma = system: LOX IMVI melanoma
# M14 melanoma = system: M14 melanoma
# MALME-3M melanoma = system: MALME-3M melanoma
# MCF7 breast = system: MCF7 breast
# MDA-MB-231 breast = system: MDA-MB-231 breast
# MDA-MB-435 = system: MDA-MB-435
# MOLT-4 leukemia = system: MOLT-4 leukemia
# NCI-H226 lung = system: NCI-H226 lung
# NCI-H23 lung = system: NCI-H23 lung
# NCI-H460 lung = system: NCI-H460 lung
# NCI-H522 lung = system: NCI-H522 lung
# NCI/ADR-RES ovarian = system: NCI/ADR-RES ovarian
# OVCAR-3 ovarian = system: OVCAR-3 ovarian
# OVCAR-4 ovarian = system: OVCAR-4 ovarian
# OVCAR-5 ovarian = system: OVCAR-5 ovarian
# OVCAR-8 ovarian = system: OVCAR-8 ovarian
# PC-3 prostate = system: PC-3 prostate
# RPMI-8226 leukemia = system: RPMI-8226 leukemia
# RXF 393 renal = system: RXF 393 renal
# SF-268 CNS = system: SF-268 CNS
# SF-295 CNS = system: SF-295 CNS
# SF-539 CNS = system: SF-539 CNS
# SK-MEL-2 melanoma = system: SK-MEL-2 melanoma
# SK-MEL-28 melanoma = system: SK-MEL-28 melanoma
# SK-MEL-5 melanoma = system: SK-MEL-5 melanoma
# SK-OV-3 ovarian = system: SK-OV-3 ovarian
# SN12C renal = system: SN12C renal
# SNB-19 CNS = system: SNB-19 CNS
# SNB-75 CNS = system: SNB-75 CNS
# SR leukemia = system: SR leukemia
# SW-620 colon = system: SW-620 colon
# T-47D breast = system: T-47D breast
# TK-10 renal = system: TK-10 renal
# U251 CNS = system: U251 CNS
# UACC-257 melanoma = system: UACC-257 melanoma
# UACC-62 melanoma = system: UACC-62 melanoma
# UO-31 renal = system: UO-31 renal
# COLO 205 colon = system: COLO 205 colon
# HOP-92 NSCLC = system: HOP-92 NSCLC
compound,measurement,setting,value
CCCCCCCCN(CCCCCCCC)CCCCCCNc1cc(OC)cc2cccnc12,GI50,786-0 renal,14.6 µM
same,TGI,786-0 renal,28.4 µM
same,GI50,A498 renal,15.6 µM
same,TGI,A498 renal,30.5 µM
same,GI50,A549 NSCLC,16.3 µM
same,TGI,A549 NSCLC,34.8 µM
same,GI50,ACHN renal,11 µM
same,TGI,ACHN renal,23.7 µM
same,GI50,BT-549 breast,14.7 µM
same,TGI,BT-549 breast,28 µM
same,GI50,CAKI-1 renal,12.1 µM
same,TGI,CAKI-1 renal,32.5 µM
same,GI50,CCRF-CEM leukemia,11.4 µM
same,TGI,CCRF-CEM leukemia,> 100 µM
same,GI50,DU-145 prostate,2.1 µM
same,TGI,DU-145 prostate,4.52 µM
same,GI50,EKVX NSCLC,6.82 µM
same,TGI,EKVX NSCLC,24 µM
same,GI50,HCC-2998 colon,13.1 µM
same,TGI,HCC-2998 colon,26.2 µM
same,GI50,HCT-116 colon,2.37 µM
same,TGI,HCT-116 colon,6.49 µM
same,GI50,HCT-15 colon,7.68 µM
same,TGI,HCT-15 colon,24 µM
same,GI50,HL-60(TB) leukemia,16.4 µM
same,TGI,HL-60(TB) leukemia,37.3 µM
same,GI50,HOP-62 NSCLC,11.1 µM
same,TGI,HOP-62 NSCLC,23.5 µM
same,GI50,HS 578T breast,11 µM
same,TGI,HS 578T breast,29.7 µM
same,GI50,HT29 colon,3.63 µM
same,TGI,HT29 colon,15.9 µM
same,GI50,IGROV1 ovarian,13.2 µM
same,TGI,IGROV1 ovarian,29.4 µM
same,GI50,KM12 colon,6.81 µM
same,TGI,KM12 colon,20 µM
same,GI50,LOX IMVI melanoma,3.79 µM
same,TGI,LOX IMVI melanoma,13.5 µM
same,GI50,M14 melanoma,3.33 µM
same,TGI,M14 melanoma,12.4 µM
same,GI50,MALME-3M melanoma,6.92 µM
same,TGI,MALME-3M melanoma,21.9 µM
same,GI50,MCF7 breast,3.33 µM
same,TGI,MCF7 breast,12.4 µM
same,GI50,MDA-MB-231 breast,4.75 µM
same,TGI,MDA-MB-231 breast,15.9 µM
same,GI50,MDA-MB-435,3.59 µM
same,TGI,MDA-MB-435,12.8 µM
same,GI50,MOLT-4 leukemia,16.3 µM
same,TGI,MOLT-4 leukemia,42.9 µM
same,GI50,NCI-H226 lung,17 µM
same,TGI,NCI-H226 lung,33.7 µM
same,GI50,NCI-H23 lung,2.42 µM
same,TGI,NCI-H23 lung,6.2 µM
same,GI50,NCI-H460 lung,8.27 µM
same,TGI,NCI-H460 lung,21.6 µM
same,GI50,NCI-H522 lung,1.9 µM
same,TGI,NCI-H522 lung,4.78 µM
same,GI50,NCI/ADR-RES ovarian,10.4 µM
same,TGI,NCI/ADR-RES ovarian,23.4 µM
same,GI50,OVCAR-3 ovarian,2.01 µM
same,TGI,OVCAR-3 ovarian,4.09 µM
same,GI50,OVCAR-4 ovarian,5.62 µM
same,TGI,OVCAR-4 ovarian,19.7 µM
same,GI50,OVCAR-5 ovarian,15.3 µM
same,TGI,OVCAR-5 ovarian,29.6 µM
same,GI50,OVCAR-8 ovarian,3.39 µM
same,TGI,OVCAR-8 ovarian,12.4 µM
same,GI50,PC-3 prostate,4.18 µM
same,TGI,PC-3 prostate,19 µM
same,GI50,RPMI-8226 leukemia,7.75 µM
same,TGI,RPMI-8226 leukemia,75.4 µM
same,GI50,RXF 393 renal,14.2 µM
same,TGI,RXF 393 renal,28.5 µM
same,GI50,SF-268 CNS,12.7 µM
same,TGI,SF-268 CNS,30 µM
same,GI50,SF-295 CNS,14 µM
same,TGI,SF-295 CNS,29.3 µM
same,GI50,SF-539 CNS,3.18 µM
same,TGI,SF-539 CNS,11.5 µM
same,GI50,SK-MEL-2 melanoma,5.8 µM
same,TGI,SK-MEL-2 melanoma,19.1 µM
same,GI50,SK-MEL-28 melanoma,13.6 µM
same,TGI,SK-MEL-28 melanoma,27.1 µM
same,GI50,SK-MEL-5 melanoma,8.53 µM
same,TGI,SK-MEL-5 melanoma,21.1 µM
same,GI50,SK-OV-3 ovarian,15.3 µM
same,TGI,SK-OV-3 ovarian,28.8 µM
same,GI50,SN12C renal,2.58 µM
same,TGI,SN12C renal,6.9 µM
same,GI50,SNB-19 CNS,10.5 µM
same,TGI,SNB-19 CNS,24.2 µM
same,GI50,SNB-75 CNS,15.3 µM
same,TGI,SNB-75 CNS,29 µM
same,GI50,SR leukemia,6.7 µM
same,TGI,SR leukemia,59.1 µM
same,GI50,SW-620 colon,2.75 µM
same,TGI,SW-620 colon,10.1 µM
same,GI50,T-47D breast,12.1 µM
same,TGI,T-47D breast,27.5 µM
same,GI50,TK-10 renal,20.3 µM
same,TGI,TK-10 renal,36 µM
same,GI50,U251 CNS,11.9 µM
same,TGI,U251 CNS,27 µM
same,GI50,UACC-257 melanoma,2.2 µM
same,TGI,UACC-257 melanoma,5.62 µM
same,GI50,UACC-62 melanoma,16.9 µM
same,TGI,UACC-62 melanoma,31.4 µM
same,GI50,UO-31 renal,10.9 µM
same,TGI,UO-31 renal,24.4 µM
CN(C)c1ccc(N=C2C=CC(=[N+](C)C)C=C2)cc1,GI50,786-0 renal,30 µM
same,TGI,786-0 renal,> 100 µM
same,GI50,A498 renal,2.7 µM
same,TGI,A498 renal,> 100 µM
same,GI50,A549 NSCLC,5.21 µM
same,TGI,A549 NSCLC,> 100 µM
same,GI50,ACHN renal,12.2 µM
same,TGI,ACHN renal,37.5 µM
same,GI50,BT-549 breast,4.15 µM
same,TGI,BT-549 breast,58.4 µM
same,GI50,CAKI-1 renal,12.1 µM
same,TGI,CAKI-1 renal,41.8 µM
same,GI50,COLO 205 colon,4.2 µM
same,TGI,COLO 205 colon,16.2 µM
same,GI50,DU-145 prostate,22.3 µM
same,TGI,DU-145 prostate,> 100 µM
same,GI50,EKVX NSCLC,3.58 µM
same,TGI,EKVX NSCLC,40.7 µM
same,GI50,HCC-2998 colon,9.03 µM
same,TGI,HCC-2998 colon,65.8 µM
same,GI50,HCT-116 colon,4.04 µM
same,TGI,HCT-116 colon,17.8 µM
same,GI50,HCT-15 colon,23.5 µM
same,TGI,HCT-15 colon,> 100 µM
same,GI50,HOP-62 NSCLC,4.21 µM
same,TGI,HOP-62 NSCLC,> 100 µM
same,GI50,HOP-92 NSCLC,5.17 µM
same,TGI,HOP-92 NSCLC,74.4 µM
same,GI50,HS 578T breast,3.28 µM
same,TGI,HS 578T breast,29.1 µM
same,GI50,HT29 colon,3.74 µM
same,TGI,HT29 colon,22.9 µM
same,GI50,IGROV1 ovarian,5.35 µM
same,TGI,IGROV1 ovarian,37.8 µM
same,GI50,KM12 colon,3.91 µM
same,TGI,KM12 colon,15 µM
same,GI50,LOX IMVI melanoma,3.86 µM
same,TGI,LOX IMVI melanoma,22.1 µM
same,GI50,M14 melanoma,17.7 µM
same,TGI,M14 melanoma,81.4 µM
same,GI50,MALME-3M melanoma,8.97 µM
same,TGI,MALME-3M melanoma,38.6 µM
same,GI50,MCF7 breast,4.03 µM
same,TGI,MCF7 breast,17.6 µM
same,GI50,MDA-MB-231 breast,6.41 µM
same,TGI,MDA-MB-231 breast,> 100 µM
same,GI50,MDA-MB-435,6.34 µM
same,TGI,MDA-MB-435,29.2 µM
same,GI50,NCI-H226 lung,17 µM
same,TGI,NCI-H226 lung,> 100 µM
same,GI50,NCI-H23 lung,3.52 µM
same,TGI,NCI-H23 lung,29.4 µM
same,GI50,NCI-H460 lung,5.36 µM
same,TGI,NCI-H460 lung,43.7 µM
same,GI50,NCI-H522 lung,1.79 µM
same,TGI,NCI-H522 lung,4.95 µM
same,GI50,NCI/ADR-RES ovarian,19.1 µM
same,TGI,NCI/ADR-RES ovarian,> 100 µM
same,GI50,OVCAR-3 ovarian,4.99 µM
same,TGI,OVCAR-3 ovarian,17.7 µM
same,GI50,OVCAR-4 ovarian,7.52 µM
same,TGI,OVCAR-4 ovarian,21.8 µM
same,GI50,OVCAR-5 ovarian,20.4 µM
same,TGI,OVCAR-5 ovarian,76.6 µM
same,GI50,OVCAR-8 ovarian,4.51 µM
same,TGI,OVCAR-8 ovarian,> 100 µM
same,GI50,PC-3 prostate,4.89 µM
same,TGI,PC-3 prostate,22.7 µM
same,GI50,RPMI-8226 leukemia,3.2 µM
same,TGI,RPMI-8226 leukemia,11.4 µM
same,GI50,RXF 393 renal,23.4 µM
same,TGI,RXF 393 renal,> 100 µM
same,GI50,SF-268 CNS,11 µM
same,TGI,SF-268 CNS,68.1 µM
same,GI50,SF-295 CNS,4.62 µM
same,TGI,SF-295 CNS,22.1 µM
same,GI50,SF-539 CNS,11.7 µM
same,TGI,SF-539 CNS,45.8 µM
same,GI50,SK-MEL-2 melanoma,3.05 µM
same,TGI,SK-MEL-2 melanoma,13 µM
same,GI50,SK-MEL-28 melanoma,14.2 µM
same,TGI,SK-MEL-28 melanoma,> 100 µM
same,GI50,SK-MEL-5 melanoma,3.26 µM
same,TGI,SK-MEL-5 melanoma,11.8 µM
same,GI50,SK-OV-3 ovarian,15.5 µM
same,TGI,SK-OV-3 ovarian,78.6 µM
same,GI50,SN12C renal,13.7 µM
same,TGI,SN12C renal,> 100 µM
same,GI50,SNB-19 CNS,6.45 µM
same,TGI,SNB-19 CNS,> 100 µM
same,GI50,SNB-75 CNS,5.86 µM
same,TGI,SNB-75 CNS,21.2 µM
same,GI50,SW-620 colon,6.6 µM
same,TGI,SW-620 colon,26.2 µM
same,GI50,T-47D breast,4.37 µM
same,TGI,T-47D breast,21.2 µM
same,GI50,TK-10 renal,9.24 µM
same,TGI,TK-10 renal,53.4 µM
same,GI50,U251 CNS,3.65 µM
same,TGI,U251 CNS,15.4 µM
same,GI50,UACC-257 melanoma,7.12 µM
same,TGI,UACC-257 melanoma,24.8 µM
same,GI50,UACC-62 melanoma,5.25 µM
same,TGI,UACC-62 melanoma,34.6 µM
same,GI50,UO-31 renal,11.3 µM
same,TGI,UO-31 renal,47.6 µM
